Results reported in PMC3404088, “Development of a Small D-Enantiomeric Alzheimer’s Amyloid-β Binding Peptide Ligand for Future In Vivo Imaging Applications” (PLoS ONE, 2012).
Entries after “also recorded” stand apart in the source; their conditions may differ. Square brackets hold non-standard residues; d marks the D form. Peptide text beside a SMILES is read from it. * marks the point of attachment. 5FAM = O=C1OC2(c3ccc(O)cc3Oc3cc(O)ccc32)c2ccc(C(=O)*)cc21

Biological target: T1, Aβ plaques in brain sections of transgenic APP (V717I) x PS1 (A246E) mice (Homo sapiens, UniProt P05067)
T1 construct: triple image overlay of respective stains reveal that the ϕ-compounds identify plaques; from tissue; host or cells: brain cryosections of APP (V717I) x PS1 (A246E) transgenic mice
Experiment: Ex vivo staining of mouse brain slices by FITC labeled compounds
Details: for staining / recognition of Aβ plaques: 0.01 mg/ml ϕ-labeled compound, 2 h, 10 µm cryostat sections; for staining / recognition of Aβ plaques / background signal / staining pattern: fluorescence microscopy; for background signal: 0.01 mg/ml; for overlay with 6E10 anti-Aβ staining: co-staining with 6E10 (2 µg/ml) and DAPI, triple overlay
Procedure: In vitro tissue section staining was performed according to previously described protocols with slight modifications. Mouse brains were obtained from male transgenic (tg) APP (London mutation V717l) x PS1 (A246E) mice aged 13–21 months and from female wild type (wt) mice aged 9–10 months. The mice were anesthetized and transcardially perfused with saline. The brains were removed and snap frozen. 10 µm thick sagittal cryostat sections through the whole mouse brain were produced and mounted onto glass slides. ϕ-labeled compounds were applied to investigate binding. Thus, the slides were thawed, washed in PBS and fixed in 4% paraformaldehyde (20 min at RT) just before incubation with ϕ-labeled compounds. One series of sections was treated only with fluorescent compounds (0.01 mg/ml, incubation time 2 h) while another series of sections were incubated with anti-Aβ antibody 6E10 at 1∶500 dilution (SIG-39320, Covance; final antibody concentration was 2 µg/ml) in addition to ϕ-labeled compounds (0.01 mg/ml). The slices were washed in PBS. The sections incubated with ϕ-labeled compound and 6E10 antibody were further incubated for 2 h at RT with Goat-anti-Mouse IgG1– AlexaFluor 555 (A21127, Invitrogen, 1∶1000 dilution) and washed with PBS. Finally, all sections were counterstained with 4’–6-Diamidino-2-phenylindole (DAPI, 32670, Sigma, incubation 5 min at RT) for the visualization of cell nuclei. The slides were mounted using Prolong Gold Antifade mounting medium (P36930, Invitrogen) and coverslipped.
The tissues were analyzed using a fluorescent Zeiss Axioscope 2 Plus microscope using the AxioVision 4 image analysis software.
A further series of slices was stained using a primary anti-fluorescein isothiocyanate antibody combined with alkaline phosphatase reaction for visualization of ϕ-labeled peptides. Briefly, the sections were treated with blocking solution (10% normal goat serum (NGS), 0.25% Triton X-100 in PBS for 1 h at RT) and incubated with primary antibody (rabbit-anti-FITC; Invitrogen) at a dilution of 1∶500. The sections were then washed and incubated for 2 h at RT with the secondary antibody goat-anti-rabbit-alkaline phosphatase (Sigma) at a dilution of 1∶100. After washing, the slides were incubated with BCIP/NBT substrate (Sigma) for 3 min, washed, dehydrated and mounted using Eukitt mounting medium.

CC[C@@H](C)[C@@H](NC(=O)[C@@H](Cc1c[nH]cn1)NC(=O)[C@@H](CCCNC(=N)N)NC(=O)[C@@H](Cc1ccc(O)cc1)NC(=O)[C@@H](Cc1c[nH]cn1)NC(=O)[C@@H](CO)NC(=O)[C@H](N)CCC(N)=O)C(=O)N[C@H](CO)C(=O)N1CCC[C@@H]1C(=O)N[C@H](C)C(=O)N[C@H](CCC(N)=O)C(=O)N[C@H](CCCCN)C(=O)N[C@H](CCCCNC(=O)c1ccc2c(c1)C(=O)OC21c2ccc(O)cc2Oc2cc(O)ccc21)C(=O)O [ACI-87-Kϕ] (H-[dQ][dS][dH][dY][dR][dH][dI][dS][dP][dA][dQ][dK][dK](5FAM)-OH; N-terminus and C-terminus assumed)
staining / recognition of Aβ plaques: readily recognized amyloid plaques
background signal: high background fluorescence
overlay with 6E10 anti-Aβ staining: nearly no overlay with 6E10 anti-Aβ was detected

CC[C@@H](C)[C@@H](NC(=O)[C@@H](Cc1c[nH]cn1)NC(=O)[C@@H](CCCNC(=N)N)NC(=O)[C@@H](Cc1ccc(O)cc1)NC(=O)[C@@H](Cc1c[nH]cn1)NC(=O)[C@H](N)CO)C(=O)N[C@H](CO)C(=O)N1CCC[C@@H]1C(=O)N[C@H](C)C(=O)N[C@H](CCC(N)=O)C(=O)N[C@H](CCCCN)C(=O)N[C@H](CCCCNC(=O)c1ccc2c(c1)C(=O)OC21c2ccc(O)cc2Oc2cc(O)ccc21)C(=O)O [ACI-88-Kϕ] (H-[dS][dH][dY][dR][dH][dI][dS][dP][dA][dQ][dK][dK](5FAM)-OH; N-terminus and C-terminus assumed)
staining / recognition of Aβ plaques: stained plaques most intensively; also recorded: readily recognized amyloid plaques
background signal: lowest background signal of all peptides
overlay with 6E10 anti-Aβ staining: match 6E10 anti-Aβ staining quite well; also recorded: good overlap with 6E10 Aβ staining
staining pattern: stained the core of plaques

CC[C@@H](C)[C@@H](NC(=O)[C@@H](Cc1c[nH]cn1)NC(=O)[C@@H](CCCNC(=N)N)NC(=O)[C@@H](Cc1ccc(O)cc1)NC(=O)[C@@H](Cc1c[nH]cn1)NC(=O)[C@@H](CO)NC(=O)[C@H]1CCCN1)C(=O)N[C@H](CO)C(=O)N1CCC[C@@H]1C(=O)N[C@H](C)C(=O)N[C@H](CCC(N)=O)C(=O)N[C@H](CCCCN)C(=O)N[C@H](CCCCNC(=O)c1ccc2c(c1)C(=O)OC21c2ccc(O)cc2Oc2cc(O)ccc21)C(=O)O [ACI-89-Kϕ] (H-[dP][dS][dH][dY][dR][dH][dI][dS][dP][dA][dQ][dK][dK](5FAM)-OH; N-terminus and C-terminus assumed)
staining / recognition of Aβ plaques: stained plaques most intensively; also recorded: readily recognized amyloid plaques
overlay with 6E10 anti-Aβ staining: match 6E10 anti-Aβ staining quite well
staining pattern: more similar to the one of 6E10 which also stains diffuse Aβ plaques
plaque detection via anti-fluorescein isothiocyanate antibody and alkaline phosphatase (tg mouse brain slices immersed in ϕ-peptide, BCIP/NBT chromogenic detection, light microscope): abundant chromogenic deposits
